Laboratory results taken from patent US8178543B2, “Bi- and tricyclic fused pyrimidines as tyrosine kinase inhibitors” (Takeda Pharmaceutical Company Limited, priority 2004, dated 2012).

Molecular target: T1, HER2 intracellular domain (Homo sapiens, UniProt P04626)
T1 construct: made in house; host or cells: SF-21 insect cells, recombinant baculovirus BAC-HER2
Experiment: Determination of HER2 kinase inhibitory activity
Format: biochemical
Details: 1.0 μM test compound; poly-Glu:Tyr (4:1) substrate, [γ-32P]ATP, 25° C., 10 min; read-out: HER2 kinase Inhibitory rate (%) at 1.0 μM
Description: Human HER2 gene was cloned by RT-PCR using total RNA prepared from MCF7 cells as a template. The primer used for RT-PCR was prepared from nucleotide sequence (Genbank Accession M11730) information of HER2 gene by adding a nucleotide sequence encoding flag peptide and a restriction enzyme recognition sequence to a nucleotide sequence (2176-3918 of Genbank Accession M11730) encoding the HER2 intracellular domain region, so that the protein contains an N-terminal Flag tag. The primer nucleotide sequence is shown below.
The RT reaction was conducted using SuperScript First-Strand Synthesis System for RT-PCR (Invitrogen) and the PCR reaction was conducted using a KOD-plus kit (TOYOBO). The obtained PCR product was electrophoresed on agarose gel (1%), the DNA fragment amplified by PCR was recovered from the gel, and then digested with restriction enzymes Sal I and Sph I. The DNA treated with the restriction enzymes was electrophoresed on agarose gel (1%), and the obtained DNA fragment was recovered and ligated to plasmid pFASTBAC1 (Invitrogen) digested with restriction enzymes Sal I and Sph I to give expression plasmid pFB-HER2. The nucleotide sequence of the insertion fragment was confirmed and found to be identical with the nucleotide sequence (2176-3918 of Genbank Accession M11730) of HER2 intracellular domain. Furthermore, using BAC-TO-BAC Baculovirus Expression System (Invitrogen), recombinant baculovirus BAC-HER2 was prepared.
SF-21 cells were sown at 1×10^6 cells/mL to Sf-900II SFM medium (1 L, Invitrogen) containing 10% fetal bovine serum (trace), 50 mg/L gentamicin (Invitrogen) and 0.1% Pluronic F-68 (Invitrogen), and shaking culture was performed using a 2 L volume Erlenmeyer flask at 27° C., 100 rpm. After culturing for 24 hrs, recombinant baculovirus BAC-HER2 (13.4 mL) was added, and the mixture was further cultured for 3 days. The culture medium was centrifuged at 2,000 rpm for 5 min. to give virus-infected cells. The infected cells were washed with a phosphate buffered saline (Invitrogen), centrifuged under the same conditions, and the cells were preserved at −80° C. The cryopreserved cells were thawed in ice, suspended in buffer A (50 mM Tris buffer (30 mL, pH 7.4) containing 20% glycerol, 0.15 M NaCl) supplemented with Complete Protease Inhibitor (Boehringer), and ruptured 3 times with a Polytron homogenizer (Kinematica) at 20,000 rpm for 30 sec. The rupture medium was clarified by centrifugation at 40,000 rpm for 30 min. and filtered with a 0.45 μm filter. The filtrate was passed through a column packed with Anti-FLAG M2 Affinity Gel (4 mL, Sigma) at a flow rate of about 0.5 mL/min. The column was washed with buffer A, and eluted with buffer A containing 100 μg/mL of FLAG peptide. The eluate was concentrated with Vivaspin 20 (Vivascience) having a molecular weight cut off of 30K. The concentrate was purified by gel filtration using Hi Load Superdex 200 pg 16/60 (Amersham Bioscience) equilibrated with buffer A. The fractions containing HER2 intracellular domain were collected, glycerol was added to the final concentration of 50% and cryopreserved at −80° C.
A test compound dissolved in dimethyl sulfoxide (DMSO) was diluted with a buffer for kinase reaction (50 mM Tris-HCl (pH7.5), 5 mM MgCl2, 5 mM MnCl2, 2 mM dithiothreitol, 0.01% Tween-20). To this compound solution (10 μL) was added a buffer for kinase reaction (20 μL) containing 5 μg/mL of HER2 intracellular domain obtained in Experimental Example 1B and 12.5 μg/mL of polypeptide substrate poly-Glu:Tyr (4:1) (Sigma). To the obtained mixture was added 20 μL of ATP solution (1.25 μM ATP, 0.05 μCi [γ-^32P]ATP), the mixture was allowed to react at 25° C. for 10 min. and the reaction was quenched with 50 μL of 20% TCA solution. The reaction solution was allowed to stand at 4° C. for 20 min., and the acid insoluble fraction was transferred to GF/C filter (PerkinElmer) using cell harvester (PerkinElmer) and washed with 250 mM phosphoric acid solution. […]

T1 sequence (P04626 676-1255 limits assumed): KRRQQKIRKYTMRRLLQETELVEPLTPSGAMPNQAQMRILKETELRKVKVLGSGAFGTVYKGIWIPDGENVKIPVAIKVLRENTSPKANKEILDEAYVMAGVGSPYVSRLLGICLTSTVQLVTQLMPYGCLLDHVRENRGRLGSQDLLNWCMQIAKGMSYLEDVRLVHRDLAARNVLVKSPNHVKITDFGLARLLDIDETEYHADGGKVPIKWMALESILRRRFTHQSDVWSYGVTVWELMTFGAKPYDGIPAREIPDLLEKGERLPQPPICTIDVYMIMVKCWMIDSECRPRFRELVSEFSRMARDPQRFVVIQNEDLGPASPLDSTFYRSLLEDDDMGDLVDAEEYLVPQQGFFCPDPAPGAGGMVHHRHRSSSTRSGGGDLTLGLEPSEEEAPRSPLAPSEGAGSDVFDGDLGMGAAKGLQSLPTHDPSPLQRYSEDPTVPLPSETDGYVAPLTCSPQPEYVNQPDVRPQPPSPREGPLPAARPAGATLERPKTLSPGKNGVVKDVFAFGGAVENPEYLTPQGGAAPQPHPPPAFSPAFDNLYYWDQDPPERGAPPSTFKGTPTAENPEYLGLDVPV

Structure (SMILES) | inhibition at 1 µM [%]
Cc1ccc(Oc2ccc(Nc3ncnc4cc(/C=C/CO)[nH]c34)cc2C)cn1 [Example 13, (2E)-3-[4-({3-methyl-4-[(6-methylpyridin-3-yl)oxy]phenyl}amino)-5H-pyrrolo[3,2-d]pyrimidin-6-yl]-2-propen-1-ol] | 94.9
CCOCCn1ccc2ncnc(Nc3ccc(OCc4cccc(F)c4)c(Cl)c3)c21 [Example 38, N-{3-chloro-4-[(3-fluorobenzyl)oxy]phenyl}-5-(2-ethoxyethyl)-5H-pyrrolo[3,2-d]pyrimidin-4-amine] | 95.9
Cn1ccc2ncnc(Nc3ccc(OCc4cccc(F)c4)c(Cl)c3)c21 [Example 39, N-{3-chloro-4-[(3-fluorobenzyl)oxy]phenyl}-5-methyl-5H-pyrrolo[3,2-d]pyrimidin-4-amine] | 96.1
CC(C)(O)CC(=O)NCCn1ccc2ncnc(Nc3ccc(Oc4cccc(C(F)(F)F)c4)c(Cl)c3)c21 [Example 158, N-{2-[4-({3-chloro-4-[3-(trifluoromethyl)phenoxy]phenyl}amino)-5H-pyrrolo[3,2-d]pyrimidin-5-yl]ethyl}-3-hydroxy-3-methylbutanamide] | 87
Cc1cc(Nc2ncnc3ccn(CCNC(=O)CS(C)(=O)=O)c23)ccc1Oc1cccc(OC(F)(F)F)c1 [Example 190, 2-(methylsulfonyl)-N-{2-[4-({3-methyl-4-[3-(trifluoromethoxy)phenoxy]phenyl}amino)-5H-pyrrolo[3,2-d]pyrimidin-5-yl]ethyl}acetamide] | 95.9
CS(=O)(=O)CC(=O)NCCn1ccc2ncnc(Nc3ccc(Oc4cccc(Cl)c4)c(Cl)c3)c21 [Example 191, N-[2-(4-{[3-chloro-4-(3-chlorophenoxy)phenyl]amino}-5H-pyrrolo[3,2-d]pyrimidin-5-yl)ethyl]-2-(methylsulfonyl)acetamide] | 100
